Like-named read-outs stand apart in the source and are kept apart here.
B1: LysK: endolysin LysK (protein)
chain: MAKTQAEINKRLDAYAKGTVDSPYRVKKATSYDPSFGVMEAGAIDADGYYHAQCQDLITDYVLWLTDNKVRTWGNAKDQIKQSYGTGFKIHENKPSTVPKKGWIAVFTSGSYEQWGHIGIVYDGGNTSTFTILEQNWNGYANKKPTKRVDNYYGLTHFIEIPVKAGTTVKKETAKKSASKTPAPKKKATLKVSKNHINYTMDKRGKKPEGMVIHNDAGRSSGQQYENSLANAGYARYANGIAHYYGSEGYVWEAIDAKNQIAWHTGDGTGANSGNFRFAGIEVCQSMSASDAQFLKNEQAVFQFTAEKFKEWGLTPNRKTVRLHMEFVPTACPHRSMVLHTGFNPVTQGRPSQAIMNKLKDYFIKQIKNYMDKGTSSSTVVKDGKTSSASTPATRPVTGSWKKNQYGTWYKPENATFVNGNQPIVTRIGSPFLNAPVGGNLPAGATIVYDEVCIQAGHIWIGYNAYNGNRVYCPVRTCQGVPPNQIPGVAWGVFK
modifications: Staphylococcus aureus Phage K

Assays:
P. aeruginosa PAO1p = experiment: In vitro antibacterial activity (log reduction) of modified OBPgpLys fusion variants; assay type: cell-based; details: 10^6 cells/ml, 30 minutes at RT
Method: (§1) Exponential growing Gram-negative bacterial cells (OD600 nm=0.6) were 100-fold diluted to a final density of about 10^6 cells/ml in 5 mM HEPES pH 7.4 and incubated for 30 minutes at room temperature without shaking with the different modified OBPgpLYS variants (in Elution Buffer in an end concentration of 1500 nM). After incubation cell suspensions and as a control untreated bacterial cells without any added modified OBPgpLYS variant were diluted three times (respectively 10^5-10^4-10^3 cells/ml) in 1× concentrated PBS buffer and 100 μl of each dilution was plated out on LB-medium. […] All samples were replicated in threefold. Averages +/− standard deviations are represented.
(§2) The production of OBPgpLys with two peptide stretches is described above in Example 1. Moreover, the purification of the fusion proteins and the antimicrobial activity assay was performed as described already in Example 1.

P. putida G1 = experiment: as above; assay type: cell-based; details: 10^6 cells/ml, 30 minutes at RT
Method: as §1, §2

E. coli XL1 blue = assay type: cell-based; details: for Average log reduction, E. coli. X1-1: Table 9, with EDTA 0.5 mM
Method: (§3) . After incubation cell suspensions and as a control untreated bacterial cells without any added modified OBPgpLYS variant were diluted three times (respectively 10^5-10^4-10^3 cells/ml) in 1× concentrated PBS buffer and 100 μl of each dilution was plated out on LB-medium. […] All samples were replicated in threefold. Averages +/− standard deviations are represented.
as §2

S. typhimurium LT2 = experiment: In vitro antibacterial activity (log reduction) of modified OBPgpLys fusion variants; assay type: cell-based, Salmonella typhimurium; details: 10^6 cells/ml, 30 minutes at RT; for Average log reduction, Salmonella typhimurium LT2: Table 9, with EDTA 0.5 mM; for Average log reduction, S. typhimurium LT2: 1500 nM protein
Method: as §3, with “After” for “. After”
as §2

Staphylococcus bacteria = experiment: In vitro antibacterial activity of Lysostaphin and LysK fusion variants; assay type: cell-based; details: with EDTA 0.5 mM, 10^6 cells/ml, 30 minutes at RT
[1] = with EDTA 0.5 mM (B), 1500 nM protein
[2] = without EDTA (A), 1500 nM protein
[3] = 10^6 cells/ml, 30 minutes at RT
[4] = with EDTA 0.5 mM (B), 1500 nM protein, 10^6 cells/ml, 30 minutes at RT
[5] = without EDTA (A), 1500 nM protein, 10^6 cells/ml, 30 minutes at RT

Row | Molecule | Average log reduction, P. aeruginosa PAO1p (P. aeruginosa PAO1p; [1]) [log] | Average log reduction, P. putida G1 (P. putida G1; [1]) [log] | Average log reduction, E. coli XL1 blue (E. coli XL1 blue) [log] | Average log reduction, P. aeruginosa PAO1p (P. aeruginosa PAO1p; Table 9, with EDTA 0.5 mM) | Average log reduction, P. aeruginosa PAO1p (P. aeruginosa PAO1p; [2]) [log] | Average log reduction, P. putida G1 (P. putida G1; Table 9, with EDTA 0.5 mM) | Average log reduction, P. putida G1 (P. putida G1; [2]) [log] | Average log reduction, E. coli. X1-1 (E. coli XL1 blue; [3]) | Average log reduction, E. coli XL1 blue (E. coli XL1 blue; [4]) [log] | Average log reduction, E. coli XL1 blue (E. coli XL1 blue; [5]) [log] | Average log reduction, Salmonella typhimurium LT2 (S. typhimurium LT2) | Average log reduction, S. typhimurium LT2 (S. typhimurium LT2; with EDTA 0.5 mM (B)) [log] | Average log reduction, S. typhimurium LT2 (S. typhimurium LT2; without EDTA (A)) [log] | Average log reduction, Staphylococcus (Staphylococcus bacteria; Lysostaphin variants) | Average log reduction, Staphylococcus (Staphylococcus bacteria; LysK variants)
1 | O=C(O)CN(CCN(CC(=O)O)CC(=O)O)CC(=O)O [EDTA, reference compound] | 1.82 | 0.65 | 0.85 |  |  |  |  |  |  |  |  |  |  |  | 
2 | Lycotoxin1-PK-OBPgpLYS: antimicrobial peptide Lycotoxin 1, then PK, N-terminally fused to endolysin OBPgpLys | 3.73 | 2.26 |  | +++ (+++: 4 or more logs) | 0.08 | ++ (++: 2-3 log) | 0.56 | ++ (++: 2-3 log) | 0.90 | 0.41 | + (+: 1 log) | 0.29 | 0.17 |  | 
3 | Lysostaphin-Sarcotoxin IA: Lysostaphin fusion variant with one peptide stretch, Sarcotoxin IA, C-terminal |  |  |  |  |  |  |  |  |  |  |  |  |  | ++ (++: 2-3 log) | 
4 | Lysostaphin: bacteriocin degrading Staphylococcus cell walls |  |  |  |  |  |  |  |  |  |  |  |  |  | + (+: 1 log) | 
5 | OBPgpLYS: endolysin of Pseudomonas putida phage OBP, without peptide stretch |  |  |  | + (+: 1 log) |  | + (+: 1 log) |  | + (+: 1 log) |  |  | + (+: 1 log) |  |  |  | 
6 | PK-Pentapeptide-OBPgplys: polycationic peptide PK, then hydrophobic pentapeptide FFVAP, N-terminally fused to endolysin OBPgpLys | 4.00 | 3.24 |  | +++ (+++: 4 or more logs) | 0.95 | +++ (+++: 4 or more logs) | 0.80 | ++ (++: 2-3 log) | 2.12 | 1.69 | + (+: 1 log) | 0.42 | 0.22 |  | 
7 | PK-α4-OBPgpLys: polycationic peptide PK, then α4-helix of T4-lysozyme, N-terminally fused to endolysin OBPgpLys | 5.07 | 2.97 |  | +++ (+++: 4 or more logs) | 1.10 | ++ (++: 2-3 log) | 0.01 | ++ (++: 2-3 log) | 0.86 | 0.54 | + (+: 1 log) | 0.29 | 0.23 |  | 
8 | Parasin1-PK-OBPgpLys: antimicrobial peptide Parasin 1, then PK, N-terminally fused to endolysin OBPgpLys | 4.92 | 2.32 |  | +++ (+++: 4 or more logs) | 0.75 | ++ (++: 2-3 log) | 0.16 | ++ (++: 2-3 log) | 1.00 | 0.70 | + (+: 1 log) | 0.28 | 0.27 |  | 
9 | Sarcotoxin IA-Lysostaphin: Lysostaphin fusion variant with one peptide stretch, Sarcotoxin IA, N-terminal |  |  |  |  |  |  |  |  |  |  |  |  |  | ++ (++: 2-3 log) | 
10 | Walmagh1-PK-OBPgpLYS: hydrophobic peptide Walmagh 1, then PK, N-terminally fused to endolysin OBPgpLys | 3.66 | 3.22 |  |  | 0.20 |  | 0.29 |  | 1.70 | 1.46 |  | 0.17 | 0.12 |  | 
11 | Walmagh2-PK-OBPgplys: amphiphatic peptide Walmagh 2, then PK, N-terminally fused to endolysin OBPgpLys | 3.91 | 2.60 |  | +++ (+++: 4 or more logs) | 0.57 | ++ (++: 2-3 log) | 0.00 | ++ (++: 2-3 log) | 1.86 | 1.68 | + (+: 1 log) | 0.25 | 0.17 |  | 
12 | α4-PK-OBPgpLys: α4-helix of T4-lysozyme, then polycationic peptide PK, N-terminally fused to endolysin OBPgpLys | 5.23 | 2.98 |  | +++ (+++: 4 or more logs) | 0.59 | ++ (++: 2-3 log) | 0.02 | + (+: 1 log) | 0.58 | 0.55 | + (+: 1 log) | 0.35 | 0.22 |  | 
13 | B1 |  |  |  |  |  |  |  |  |  |  |  |  |  |  | + (+: 1 log)

Reference: patent US20130344055A1, “ANTIMICROBIAL AGENTS” (priority 2010, published 2013)
